{
  "source": "paper PMC7377239",
  "about": "“Cardiovascular Effects of Polychlorinated Biphenyls and Their Major Metabolites” (Environmental Health Perspectives, 2020)",
  "origin": "cited, not measured here",
  "test_system": "porcine pulmonary artery–derived EC",
  "design": "method as in Hennig et al. 2002, 2005; Toborek et al. 1995",
  "conditions": "ref Hennig et al. 2002, 2005, Toborek et al. 1995; cited from earlier work",
  "data": [
    {"smiles": "Clc1ccc(-c2ccc(Cl)c(Cl)c2)cc1Cl", "note": "[PCB 77]", "values": [
      {"measurement": "EC toxicity", "value": "potent inducers of EC toxicity"}
    ]},
    {"smiles": "Clc1ccc(-c2cc(Cl)c(Cl)c(Cl)c2Cl)cc1", "note": "[PCB 114]", "values": [
      {"measurement": "EC toxicity", "value": "potent inducers of EC toxicity"}
    ]},
    {"smiles": "Clc1ccc(-c2cc(Cl)c(Cl)cc2Cl)cc1Cl", "note": "[PCB 118]", "values": [
      {"measurement": "EC toxicity", "value": "potent inducers of EC toxicity"}
    ]}
  ]
}
